Test results published in patent publication US20060141629A1, “Method and system for determining platelet-mediated clot formation” (priority 2004, published 2006).

Columns and labels:
[1] = tested on: blood from patients receiving coumadin therapy; experiment: PT reagent initiated clot formation (CPA), coumadin patients; format: cell-based
Experimental: In this assay PT-fibrinogen reagent (Instrumentation Laboratories) was diluted 1:10 in normal saline containing 0.5% BSA to yield a 10% solution. On the upper cap of a CPA well set attached to a magnetic stirrer 1.6 μl of 1M CaCl2 and 3.8; or 4.0 μl of the diluted PT reagent were added. The stirrer assembly was placed in a CPA well containing 130 μl of whole blood and spinning at about 720 rpm started immediately. The spinning was stopped after 2 min. The well was then washed and stained as described above, and clot % surface coverage and clot average size were determined.

[2] = tested on: vitamin K dependent clotting factors (II, VII, IX and X); experiment: Level of vitamin K dependent clotting factors on coumadin therapy; format: in vivo; details: patient on coumadin therapy, INR=3.0
[3] = INR (ratio of PT clotting times) in patients on coumadin; format: in vivo; details: patients receiving coumadin therapy; normal INR 0.8-1.3
[4] = PTT of patient receiving heparin therapy; format: in vivo; details: normal 26-34 sec
[5] = tested on: blood from a patient receiving heparin therapy; experiment: Heparin inhibition of factor Xa clot formation (CPA); format: cell-based
Experimental: In the following experiment bovine factor Xa (Sigma) and CaCl2 were used to initiate clot formation in whole blood. On the upper cap of a CPA well set was placed 2.2 μl of a factor Xa solution (7×10^−3 unit/ml) and 1.6 μl of 1M CaCl2. The stirrer assembly was placed in a well containing 130 μl of whole blood and spinning at about 720 rpm started immediately. The spinning was stopped after 2 min. The well was then washed and stained, and the clot % surface coverage and the clot average size were determined.

[6] = tested on: whole blood sample from a healthy subject; experiment: Titration of thrombin inhibitor hirudin with thrombin (CPA); format: cell-based
Experimental: The levels of thrombin inhibitory drugs such as hirudin and its analogs were determined by titrating the thrombin inhibitor in a whole blood sample with thrombin. To a whole blood sample from a healthy subject hirudin (Sigma) was add to a level of 5×10^−1 anti-thrombin Units/ml. Bovine thrombin (Sigma) (5 Units/ml or 10 Units/ml) was then added to the hirudin treated and untreated whole blood. The thrombin was placed on the upper cap of a CPA well set attached to a magnetic stirrer. The stirrer assembly was placed in a well containing 130 μl of whole blood and spinning at about 720 rpm started immediately. After two min. the spinning was stopped. As described above, the well was washed and stained, and the clot % surface coverage and clot average size determined.

[7] = tested on: normal blood samples (citrated whole blood); experiment: Thrombin dose response of fibrin clot formation (CPA, image analysis); format: cell-based; details: FIGS. 2A-2B
Experimental: In this assay, increasing concentrations of thrombin, which promotes fibrin clot formation, were applied to normal blood samples. In particular, thrombin was placed on the tip of the rotating conical disc, in an amount yielding final concentration according to the points indicated in FIG. 3A and FIG. 3B. The conical disc was then applied in the well containing 130 μL of citrated whole blood, rotated at 720 rpm for two minutes followed by washing and staining of the well. For quantitative determination of fibrin clot formation image analysis (using Impact-R image analysis system, DiaMed, Switzerland) was performed.
Image analysis of the stained fibrin clots was performed expressing the amount of clot in terms of % of surface covered (SC, %), and the average size (AS, μm^2) of the stained clots.

[8] = factor Xa and CaCl2 added, FIG. 5D

CC(=O)CC(c1ccccc1)c1c(O)c2ccccc2oc1=O (centres unmarked) [coumadin]
clot formation ([1]; blood from coumadin patients, absence of clot initiator or CaCl2, FIG. 4C): no clots are formed | clot formation ([1]; blood from coumadin treated patients (INR 3.0), PT reagent added, FIG. 4D): no clot formation was observed | vitamin K dependent clotting factors level [2]: 25-40% | INR [3]: 3.0

heparin
PTT [4]: 130 s | clot average size [5, 8]: 30 | clot formation [5, 8]: no clot formation was observed | surface coverage [5, 8]: 3.0% | clot average size ([5]; no factor Xa or CaCl2, FIG. 5C): 24 | surface coverage ([5]; no factor Xa or CaCl2, FIG. 5C): 8.2%

hirudin
clotting ([6]; whole blood containing hirudin, thrombin 4×10^−2 Units/ml, FIG. 7B): no clotting was observed

thrombin: Bovine thrombin (Sigma), promotes fibrin clot formation; clot initiator
thrombin added giving sharp increase in both average size and surface coverage [7]: 0.005 IU/ml | clotting ([6]; added thrombin 6×10^−2 Units/ml, whole blood treated with hirudin, FIG. 7D): Clotting was observed | added thrombin concentration at which clotting began ([6]; thrombin added to the whole blood, FIG. 7C): 1×10^−2 Units/ml
